Read-outs that look alike come from different tables or passages of the source.
What was measured:
[1] = Dark Avoidance Assay (scopolamine induced memory deficit reversal); format: in vivo, mice; settings: Mus musculus, read-out: % of Animals With Scopolamine Induced Memory Deficit Reversal; for responders at 3 mg/kg: dose 3.0 mg/kg of body wt; for responders at 0.63 mg/kg: dose 0.63 mg/kg of body wt; for responders at 1.25 mg/kg: dose 1.25 mg/kg of body wt; for responders at 0.3 mg/kg: dose 0.3 mg/kg of body wt
Description: The compounds of the present invention are also useful in the treatment of various memory dysfunctions characterized by decreased cholinergic function such as Alzheimer's Disease.
In this assay, mice are tested for their ability to remember an unpleasant stimulus for a period of 24 hours. A mouse is placed in a chamber that contains a dark compartment; a strong incandescent light drives it to the dark compartment, where an electric shock is administered through metal plates on the floor. The animal is removed from the testing apparatus and tested again, 24 hours later, for the ability to remember the electric shock.
If scopolamine, an anticholinergic that is known to cause memory impairment, is administered before an animal's initial exposure to the test chambers, the animal re-enters the dark compartment shortly after being placed in the test chamber 24 hours later. The effect of scopolamine is blocked by an active test compound, resulting in a greater interval before re-entry into the dark compartment.
The results for an active compound are expressed as the percent of a group of animals in which the effect of scopolamine is blocked, as manifested by an increased interval between being placed in the test chamber and re-entering the dark compartment. Presented in Table 2 is the activity of some of the compounds of the invention in this assay.

[2] = phenyl-para-quinone writhing assay in mice (analgesia); format: in vivo; settings: for ED50: Mus musculus, sc, read-out: ED50 of Writhing (subcutaneous dose at which 50% of the phenyl-para-quinone induced writhing is inhibited)
[3] = supramaximal electroshock (SES) assay (anticonvulsant activity); format: in vivo, male mouse (Charles River, CD-1); settings: Mus musculus, ip, 0.5 h; male mice, i.p., 30 minute pretreat; read-out: ED50 (anticonvulsant, protection from extensor tonus)
Description: The compounds of the invention are also useful as anticonvulsants due to their anticonvulsant activity in mammals. Anticonvulsant activity is measured in the male mouse using the supramaximal electroshock (SES) assay described in Arch. Int. Pharmacodyn. 92:97-107, 1952. In this procedure, groups of male mice (Charles River, CD-1, 18-30 gm) are used. Drugs are prepared using distilled water and, if insoluble, a surfactant is added. Control animals receive vehicle. Drugs are routinely administered interperitoneally (i.p.) The dosage volume is 10 ml/kg. A primary screen is given a 30 minute pretreat. The animals' eyes are placed across the output terminals of an A.C. shocker that delivers 206 volts rms for 300 msec. Electrode paste coats the animals' eyes at the point of contact with the terminals. […] Protection is expressed as normalized percent inhibition relative to vehicle control.

[4] = mice, dose 1.0 mg/kg of body wt, retest after 24 hours

Structure (SMILES): CCCN(c1ccncc1)N1C(=O)C2(CCN(C)CC2)c2ccccc21 [1'Methyl-1-(propyl-4-pyridinylamino)spiro-[3H-indole-3,4'-piperidin]-2(1 H)-one]
- responders at 1 mg/kg ([1]; 24 h): 20%

Structure (SMILES): O=C1Cc2ccccc2N1Nc1ccncc1F [1,3-Dihydro-1-(3-fluoro-4-pyridinylamino)-2H-indol-2-one]
- responders at 1 mg/kg [1, 4]: 27%
- responders at 3 mg/kg ([1]; mice, retest after 24 hours): 27%

Structure (SMILES): O=C1Cc2ccccc2N1Nc1ccncc1 [1,3-Dihydro-1-(4-pyridinylamino)-2H-indol-2-one]
- ED50 [2]: 0.69 mg/kg
- responders at 0.31 mg/kg ([1]; mice, dose 0.31 mg/kg of body wt, retest after 24 hours): 27%
- responders at 0.63 mg/kg ([1]; mice, retest after 24 hours): 27%
- responders at 1.25 mg/kg ([1]; mice, retest after 24 hours): 27%

Structure (SMILES): CCCN(c1ccncc1)N1C(=O)Cc2ccccc21 [1,3-Dihydro-1-(propyl-4-pyridinylamino)-2H-indol-2-one]
- % Inhibition of Writhing (% decrease in writhing at a given dose) ([2]; 20 mg/kg, s.c.): -58%
- ED50 [3]: 15.9 mg/kg
- responders at 1.25 mg/kg ([1]; mice, retest after 24 hours): 27%

Structure (SMILES): CCCN(c1ccncc1F)N1C(=O)Cc2ccccc21 [1,3-Dihydro-1-[(3-fluoro-4-pyridinyl)-propylamino]-2H-indol-2-one]
- responders at 0.3 mg/kg ([1]; mice, retest after 24 hours): 20%
- responders at 3 mg/kg ([1]; mice, retest after 24 hours): 20%

Structure (SMILES): CC1C(=O)N(Nc2ccncc2F)c2ccccc21 (stereo not drawn) [1,3-Dihydro-1-[(3-fluoro-4-pyridinyl)amino]-3-methyl-2H-indol-2-one hemifumarate]
- responders at 0.3 mg/kg ([1]; mice, retest after 24 hours): 27%
- responders at 3 mg/kg ([1]; mice, retest after 24 hours): 20%

Structure (SMILES): CCCN(c1ccncc1)N1C(=O)C(C)(C)c2ccccc21 [1,3-Dihydro-3,3-dimethyl-1-(propyl-4-pyridinylamino)-2H-indol-2-one]
- ED50 [3]: 30.7 mg/kg
- responders at 0.3 mg/kg ([1]; mice, retest after 24 hours): 20%

Structure (SMILES): CCCN(c1ccncc1)N1C(=O)C2(Cc3ccccc3C2)c2ccccc21 [1,3-dihydro-1'-(propyl-4-pyridinylamino)spiro[2H-indene-2,3'-[3H]indol]-2'(1'H)-one]
- responders at 3 mg/kg ([1]; mice, retest after 24 hours): 25%

Structure (SMILES): CCCN(c1ccncc1F)N1C(=O)C(C)(C)c2ccccc21 [1,3-dihydro-3,3-dimethyl-1-[4-(3-fluoropyridinyl)propylamino]2H-indol-2-one]
- responders at 0.3 mg/kg ([1]; mice, retest after 24 hours): 21%
- responders at 1 mg/kg [1, 4]: 27%

Structure (SMILES): NN1C(=O)C(Cc2ccncc2)(Cc2ccncc2)c2ccccc21 [1-Amino-3,3-bis(4-pyridinylmethyl)-1,3-dihydro-2H-indol-2-one]
- responders at 0.3 mg/kg ([1]; mice, retest after 24 hours): 21%

Structure (SMILES): CCC1(c2ccccc2)C(=O)NC(=O)NC1=O [Phenobarbital, reference compound]
- ED50 [3]: 8.4 mg/kg

Structure (SMILES): CC[C@@H]1C(=O)OC[C@@H]1Cc1cncn1C [Pilocarpine, reference compound]
- responders at 1.25 mg/kg ([1]; mice, retest after 24 hours): 19%

Structure (SMILES): O=C(O)c1ccccc1O [Salicylic Acid, reference compound]
- ED50 [2]: 3.28 mg/kg

Structure (SMILES): Nc1c2c(nc3ccccc13)CCCC2 [Tacrine, reference compound]
- responders at 0.63 mg/kg ([1]; mice, retest after 24 hours): 13%
